Experiments:
[1] = tested on: primary human keratinocytes; experiment: Cell viability assay (MTS/PMS) after cell death induction with IFN-γ + TNF-α + zVAD + SMAC; type: cell-based; settings: 4 nM RIPK1 inhibitor (or higher), zVAD [20 µM] and SMAC [1 µM], 24 h, normalized to zVAD + SMAC (100 %), stimulated control 43,6 % ± 7.6 %, n=4
Method: (§1) Primary human keratinocytes were obtained from healthy donors by suction blister as reported before (J Allergy Clin Immunol 141, 1320-1333 e1311 (2018)) and donor characteristics are listed in Table S3. Epidermal keratinocytes were cultured in keratinocyte medium (DermaLife Basal Medium supplemented with DermaLife K LifeFactor Kit (Lifeline Cell Technology, LL-0007)) at 37 °C, 5 % CO2 and second- to third-passages were used. At 70-80 % of confluence, keratinocytes were pre-incubated for 1 h with RIPK1 inhibitor (100 nM or as indicated, SANOFI) followed by stimulation with rhIFN-γ (100 ng/ml or as indicated, R&D, #285-IF-100/CF) and rhTNF-α (100 ng/ml or as indicated, R&D, #210_TA/CF) in the presence of zVAD (20 µM, Cell Signaling, #60332), SMAC (1 µM, LC Laboratories, #B-9135) and the RIPK1 inhibitor for 24 h in keratinocyte medium without hydrocortisone.
Cell viability of cultured keratinocytes was determined using CellTiter 96® Aqueous NonRadioactive Cell Proliferation Assay (Promega, G5421) according to manufacturer's instructions. MTS/PMS reagent was used 1:6 diluted in keratinocyte medium without hydrocortisone and incubated for 1 h. Afterwards, supernatants were analysed by ELISA at 490 nm minus 700 nm as reference. To calculate the percentage of cell viability to ZS extinction values were normalized to the control stimulation zVAD + SMAC (100 %).

[2] = tested on: primary human keratinocytes; experiment: Multiplex ELISA of cytokines released by keratinocytes after cell death induction; type: cell-based; settings: 24 h
Method: as §1
Cell free supernatants derived from keratinocyte stimulation experiments or lesional TCS from LP/LE patients were analysed for 27 cytokines, chemokines and growth factors using the Bio-Plex Pro Human Cytokine 27-plex Assay (Bio-Rad Laboratories, Hercules, Calif) according to the manufacturer's recommendation.

RIPK1 = biological target: T1, RIPK1 (Homo sapiens, UniProt Q13546); experiment: Western blot of RIPK1-pS166 autophosphorylation in keratinocytes; type: cell-based; settings: RIPK1-pS166, 100 nM inhibitor, 6 h after IFN-γ [10 ng/ml] + TNF-α [10 ng/ml] + zVAD [20 µM]
T1 construct: Detection of RIPK1-pS 166 in WB analysis of primary human keratinocytes; endogenous in cells; host or cells: primary human keratinocytes from healthy donors (suction blister)
T1 sequence (Q13546 1-671): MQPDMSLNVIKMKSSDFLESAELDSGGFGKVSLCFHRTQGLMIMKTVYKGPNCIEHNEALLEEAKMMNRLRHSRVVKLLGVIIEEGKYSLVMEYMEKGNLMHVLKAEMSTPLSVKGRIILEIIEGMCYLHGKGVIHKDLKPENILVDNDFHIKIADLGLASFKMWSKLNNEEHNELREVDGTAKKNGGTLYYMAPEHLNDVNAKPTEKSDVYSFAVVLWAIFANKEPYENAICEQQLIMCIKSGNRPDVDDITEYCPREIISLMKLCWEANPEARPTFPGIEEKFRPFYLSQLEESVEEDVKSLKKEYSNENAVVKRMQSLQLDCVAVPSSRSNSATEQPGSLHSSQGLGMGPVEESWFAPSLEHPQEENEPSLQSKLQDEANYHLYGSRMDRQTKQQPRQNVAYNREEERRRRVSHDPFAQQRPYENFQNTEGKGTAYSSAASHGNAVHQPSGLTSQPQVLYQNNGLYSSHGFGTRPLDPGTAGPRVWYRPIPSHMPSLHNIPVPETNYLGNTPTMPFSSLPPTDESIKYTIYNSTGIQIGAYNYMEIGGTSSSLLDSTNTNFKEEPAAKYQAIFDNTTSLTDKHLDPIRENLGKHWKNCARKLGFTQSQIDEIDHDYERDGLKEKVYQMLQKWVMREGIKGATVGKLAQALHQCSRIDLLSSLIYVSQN
Method: Keratinocytes were lysed in RIPA lysis buffer (Santa Cruz) supplemented with 1 mM sodium orthovanadate, 2mM PMSF and proteinase inhibitor cocktail (1:70) according to the manufacturer's instructions.

[3] = tested on: keratinocyte skin equivalents; experiment: Three-dimensional keratinocyte skin equivalents stimulated with LP/LE-TCS, histology and epidermal thickness; type: cell-based, human; settings: 100 nM inhibitor, LP/LE-TCS 1:10 + zVAD + SMAC, 72 h
Method: Three-dimensional keratinocyte skin equivalents were generated as described before Arch Dermatol Res 296, 203-211 (2004)). Briefly, 3.0E^5 primary human keratinocytes were seeded in 500 µL keratinocyte medium with 1.5 mM CaCh into the insert and placed in a well containing the same medium. After two days, keratinocytes were exposed to the air-liquid interface and medium in the surrounding well was supplemented with 50 µg/mL Vitamin C. Nine days after airlift, the skin equivalents were pre-treated for 1 h with RIPK1 inhibitor (100 nM, SANOFI) followed by a stimulation with supernatant mix of lesional T cells from LP and LE patients (1: 10 diluted) in the presence of zVAD (20 µM, Cell Signaling, #60332), SMAC (1 µM, LC Laboratories, #B-9135) and the RIPK1 inhibitor for 72 h. Afterwards, membranes of the fixated skin equivalents were cut out with a scalpel, divided into two pieces, formalin fixed and embedded in paraffin. […] Concentrations of key cytokines in the supernatant mix of lesional T cells were determined by a multiplex ELISA (Biorad) and listed in Table S4. […]

[4] = tested on: keratinocyte skin equivalents; experiment: Three-dimensional keratinocyte skin equivalents stimulated with LP/LE-TCS, secreted cytokines in supernatant; type: cell-based, human; settings: 100 nM inhibitor, 72 h, relative concentration to stimulated control (ZS + LP/LE-TCS) without inhibitor, n=3
Method: Three-dimensional keratinocyte skin equivalents were generated as described before Arch Dermatol Res 296, 203-211 (2004)). Briefly, 3.0E^5 primary human keratinocytes were seeded in 500 µL keratinocyte medium with 1.5 mM CaCh into the insert and placed in a well containing the same medium. After two days, keratinocytes were exposed to the air-liquid interface and medium in the surrounding well was supplemented with 50 µg/mL Vitamin C. Nine days after airlift, the skin equivalents were pre-treated for 1 h with RIPK1 inhibitor (100 nM, SANOFI) followed by a stimulation with supernatant mix of lesional T cells from LP and LE patients (1: 10 diluted) in the presence of zVAD (20 µM, Cell Signaling, #60332), SMAC (1 µM, LC Laboratories, #B-9135) and the RIPK1 inhibitor for 72 h. Afterwards, membranes of the fixated skin equivalents were cut out with a scalpel, divided into two pieces, formalin fixed and embedded in paraffin. Primary human lesional T cells were isolated from freshly taken skin biopsies of LP (n=5) and LE (n=3) patients (patient characteristics see Table S 1) by emigration towards an IL-2 gradient followed by expansion with α-CD3/α-CD28 stimulation as described previously (J Invest Dermatol, (2018), Case Rep Pathol 2021, 8819560 (2021)). Supernatants of expanded lesional T cells were generated by 3-day stimulation with 0.75 µg/mL α-CD3 (pre-coated, BD Biosciences) and 0.75 µg/mL soluble α-CD28 (BD Biosciences). A mixture of all 8 lesional supernatants at equimolar ratio was used for stimulation of 3D keratinocyte skin equivalents. Concentrations of key cytokines in the supernatant mix of lesional T cells were determined by a multiplex ELISA (Biorad) and listed in Table S4. Table S4. Composition of lesional LP/LE-TCS mix. Hu = human. Cell free supernatants derived from keratinocyte stimulation experiments or lesional TCS from LP/LE patients were analysed for 27 cytokines, chemokines and growth factors using the Bio-Plex Pro Human Cytokine 27-plex Assay (Bio-Rad Laboratories, Hercules, Calif) according to the manufacturer's recommendation.

C57BL/6 mice = experiment: Tnf-α-driven systemic inflammatory response syndrome (SIRS) model, hypothermia; type: in vivo; settings: 15 min after Tnf-α (0.3 mg/kg)/zVAD i.v., 5 h, Tnf-α/zVAD alone -9.3 ± 0.3, vehicle -1.9 ± 0.5
Method: TNF-α driven systemic inflammatory response syndrome (SIRS) model was performed as described before (Immunity 35, 908-918 (2011)). Briefly, male C57BL/6 mice (n=6 per group) were injected into the tail vain with a volume of 125 µl per 25 g mouse of either vehicle (15 % PEG 200; 8.4 % DMSO; 0.6 % NaCl) or a mixture of murine Tnf-α (0.3 mg/kg) and zVAD (6.7 mg/kg) prepared in vehicle. No Tnf-α/zVAD was administered to the vehicle group. 15 min after induction of hypothermia by application of Tnf-α/zVAD mix, animals were orally dosed with RIPK1 inhibitor or GSK`963. Body temperature was monitored every hour using radio-frequency identification (RFID) technology with IPTT-300 transponders that were injected subcutaneously 2-3 days before initiation of the experiment.
Next, the effects of RIPK1 inhibition were assessed in vivo using a murine Tnf-α-driven systemic inflammatory response syndrome model (Immunity 35, 908-918 (2011)). C57BL/6 mice (n=6 per group) were injected of either vehicle (15 % PEG 200; 8.4 % DMSO; 0.6 % NaCL 0.9 %) or a mixture of murine Tnf-α (0.3 mg/kg) and zVAD (16.7 mg/kg) into the tail vein. 15 minutes after induction of hypothermia, animals were orally dosed with the RIPK1 inhibitors SAR443122 or GSK`963, a previously described RIPK1 inhibitor ( Cell Death Discov 1, 15009 (2015)). Body temperature was monitored up to 5 hours using radio-frequency identification technology with IPTT-300 transponders that were injected subcutaneously 2-3 days before initiation of the experiment (Fig. 4A). Animals receiving the Tnf-α/zVAD mixture rapidly responded with a significant decrease of body temperature within 5 hours from 37.3 ± 0.2 °C to 27.9 ± 0.2 °C and a delta temperature of -9.3 ± 0.3 °C (p=0.0002) compared to vehicle (-1.9 ± 0.5 °C). Oral administration of RIPK1 inhibitor led to a dose dependent increase of delta body temperature (1 mg/kg: -8.8 ± 0.5 °C; 5 mg/kg: -7.6 ± 1.2 °C; 15 mg/kg: -3.4 ± 1.3 °C, p=0.0007 to Tnf-α/zVAD) (Fig. 4B).

[5] = tested on: lesional skin of LP patients; experiment: Human lesional skin biopsy cultures ex vivo, gene expression by qPCR; type: cell-based; settings: 1 µM inhibitor, 4 h, LP skin biopsies (n=5), compared to autologous non-treated controls
Method: 6 mm punch biopsies of lesional skin of LP patients (n=5) were obtained under local anaesthesia. Biopsies were divided into two parts and treated with the RIPK1 inhibitor (1 µM, SANOFI) or without as untreated control sample for 4 h in T cell media (RPMI 1640 medium with 1 % human serum, 0.1 mM non-essential aminoacids, 2 mM L-Glutamine, 1 mM sodium pyruvate and 100 U/mL penicillin/streptomycin). After stimulation, biopsies were stored in RNALater® solution at -80 °C until RNA preparation. RNA was isolated using QIAzol Lysis Reagent (Qiagen) and miRNeasy Mini Kit (Qiagen) according to manufacturer's protocol. mRNA was transcribed into cDNA with Applied Biosytems High Capacity cDNA Reverse Transcription Kit (Thermo Fisher Scientific). Gene expression was measured on an Applied Biosystems ViiA7 Real-Time PCR system (Thermo Fisher Scientific) using Fast Start Universal SYBRGreen Master Rox (Roche). Primers were ordered from Metabion (http://www.metabion.com) and are listed in supplementary Table S5. Data are shown as relative gene expression to untreated sample using 2^-(ΔΔcT) method. Table S5. Primer sequences. Fw = forward. rv = reverse.

Question: For CN1C(=O)[C@@H](NC(=O)c2nnc(Cc3ccccc3)[nH]2)COc2cccnc21 [SAR443122, 5-Benzyl-N-[(3S)-5-methyl-4-oxo-2,3-dihydropyrido[3,2-b][1,4]oxazepin-3-yl]-4H-1,2,4-triazole-3-carboxamide], which viability [1] is on record?
Answer: Its viability is 95.1 % ± 0.8.

Question: What about the “release of IL-1β” value ([2]; IFN-γ + TNF-α + zVAD + SMAC, dose dependent, p=0.0050 for 100 nM, n=4) of the same compound?
Answer: Its value is “significantly diminished the release of IL-1β to basal levels”.

Question: What about the “IL-1α, IL-1RA, CXCL5, IL-8 (CXCL8), GM-CSF and CCL20” value ([2]; secreted cytokines, 100 ng/ml IFN-γ + TNF-α + zVAD + SMAC, n=3) of the same compound?
Answer: Its value is “significant reduction”.

Question: What about the RIPK1 autophosphorylation (RIPK1) of the same compound?
Answer: Its RIPK1 autophosphorylation is “efficiently blocked”.

Question: And the epidermal architecture [3]?
Answer: Its epidermal architecture is “restored the normal epidermal architecture”.

Question: What about the epidermal thickness ([3]; stimulated control 102.0 ± 5.1, unstimulated 61.3 ± 5.4, p<0.0001) of the same compound?
Answer: Its epidermal thickness is 80.3 ± 5.1 µm.

Question: What about the “release of CCL20” value [4] of the same compound?
Answer: Its value is 29.1 % ± 4.4.

Question: What about the “release of II,-1RA” value [4] of the same compound?
Answer: Its value is 48.9 % ± 18.0.

Question: What about the “release of TNF-α” value [4] of the same compound?
Answer: Its value is 70.3 % ± 6.3.

Question: And the “release of IL-8” value ([4]; p=0.4757)?
Answer: The value was 79.8 % ± 9.6.

Question: What about the delta body temperature (C57BL/6 mice; 1 mg/kg oral) of the same compound?
Answer: Its delta body temperature is -8.8 ± 0.5 °C.

Question: What about the delta body temperature (C57BL/6 mice; 5 mg/kg oral) of the same compound?
Answer: The delta body temperature was -7.6 ± 1.2 °C.

Question: And the delta body temperature (C57BL/6 mice; 15 mg/kg oral, p=0.0007 to Tnf-α/zVAD)?
Answer: The delta body temperature was -3.4 ± 1.3 °C.

Question: What about the “downregulation of CCL3” value [5] of the same compound?
Answer: Its value is 62%.

Question: What about the “downregulation of CXCL9” value [5] of the same compound?
Answer: Its value is 57%.

Question: What about the “downregulation of CXCL10” value [5] of the same compound?
Answer: The value was 40%.

Question: What about the “downregulation of CXCL11” value [5] of the same compound?
Answer: The value was 43%.

Question: And the “downregulation of IFNg” value [5]?
Answer: The value was 60%.

Question: And the “downregulation of IL1RA” value [5]?
Answer: Its value is 65%.

Question: What about the “downregulation of TNF” value [5] of the same compound?
Answer: Its value is 60%.

— patent EP4652998A1, “TREATMENT OF RECEPTOR-INTERACTING PROTEIN KINASE 1- MEDIATED DISEASE WITH ECLITASERTIB” (Technische Universität München, priority 2024, dated 2025)
